Values joined by “and” are separate entries in the source; they are usually repeats but may differ in a detail not shown here. Identical values can stand only once.
How the values were obtained:
[1] = test system: SW1 cells; experiment: Tumor growth of SW1 cells constitutively expressing ATF2 peptides, injected subcutaneously; assay type: in vivo, mouse; details: 10^6 SW1 cells SC, 18 days; control construct 1100 mm^3
Method: SW1 cells, which constitutively express the peptides indicated in FIG. 4A, were analyzed to detect expression of ATF2 peptides at the RNA level using RT-PCR. The indicated MW bands reflect the expected size product. SW1 cells (10^6) were injected subcutaneously into […] mice and tumor growth was monitored for 18 days, at which point tumors were removed and their size carefully assessed (FIG. 4B). Each group included 6 animals and each experiment was performed twice (P<0.01; T-test).
Inhibition of Tumor Growth. To examine the importance of the JNK association domain on ATF2, the possible role of a smaller peptide containing an intact JNK binding site (i.e., amino acids M^51T^52 of ATF2) was examined. To this end, three peptides of differing sizes (amino acids 51-80, 51-70, and 51-60) were compared to ATF2^51-100 peptide in their ability to inhibit tumor growth of SW1 cells in vivo. RT-PCR reactions confirmed the expression of these peptides' transcripts in the SW1 cells (FIG. 4A). […] However, expression of the 50aa peptide in these cells (constitutive expression based on selection of drug-resistant cells) decreased tumor size to 300 mm^3. Strikingly, constitutive expression of each of the 3 shorter peptides also elicited inhibition of melanoma growth that varied from 400-600 mm^3 (FIG. 4B). […] Further evaluation was performed on this 10 amino acid peptide.

[2] = test system: SW1 melanoma cells; experiment: Apoptosis of SW1 cells by FACS (hypodiploid nuclei); assay type: cell-based, mouse; details: SW1 cells expressing peptide, given as control-to-peptide increase
Method: SW1 cells constitutively expressing the indicated ATF2 peptides were transfected with either TRE-Luc (FIG. 5A) or with Jun2-Luc (FIG. 5B), and proteins were prepared for analysis of luciferase activity after 18 hours. Analysis was performed in duplicate, and the data reflect three independent experiments. SW1 cells expressing the ATF2 peptides were analyzed to establish the degree of spontaneous (basal) apoptosis as well as apoptosis 24 hours following treatment with the chemotherapeutic drug UCN-01 (FIG. 5C). The data represent triplicate analysis reproduced three times.
(§1) Effect on Apoptosis. Assessed next was the degree of apoptosis in SW1 cells under normal growth (spontaneous) as well as following treatment with chemotherapeutic drugs. Cells were analyzed to detect spontaneous (basal) or induced apoptosis [following treatment with the kinase inhibitor UCN-01 (kindly provided by NCI repository) for 36 hours]. Apoptosis was measured by using FACS (Ivanov et al., Mol. Cell, 2001, 7:517-28) to quantify the percentage of hypodiploid nuclei undergoing DNA fragmentation. Nucleation as a marker of apoptosis was monitored via DAPI staining of cells at indicated time points after their treatment. Caspase activity was monitored by immunoblots using antibodies to caspase 9 (Santa Cruz). PARP cleavage was monitored by corresponding antibodies (PharMingen).

[3] = test system: SW-1 cells; experiment: Caspase and PARP cleavage immunoblot in SW-1 cells; assay type: cell-based, mouse; details: peptides by transfection, UCN-01 (5 μm) 24 hours
Method: Human melanoma cells LU1205 were transfected with the nucleic acid molecules that encode either ATF2^51-100 peptide or ATF2^51-60 peptide. Twenty-four hours after transfection, cells were treated with of UCN-01 (5 μm) for 24 hours. Immunoblotting analysis was performed using caspase 9 and PARP antibodies, and β-actin was used as a loading control (FIG. 6A). The same experiment was performed in SW-1 cells (FIG. 6B). Stars point to the position of the uncleaved form whereas arrows point to the cleaved products.
as §1

[4] = test system: SW1 tumors; experiment: cDNA microarray gene expression profiling of SW1 tumors; assay type: in vivo, mouse; details: down regulated, hybridizations #1-#4, listed as ATFp2
Source text: FIGS. 8A and 8B show gene profiling analysis of SW1 tumors expressing the ATF2^51-100 peptide. Tumors generated, in the absence or presence of a peptide, were used as source of mRNA for array analysis of 10K mouse genes (see Example 5). […] In all cases, the data represent analyses carried out 4 times from 4 different pools of tumors.
To elucidate the molecular pathways affected by expression of the ATF2^51-100 peptide, we used cDNA microarray analysis to compare the RNA expression profiles of SW1 tumors that express this peptide or a control vector (FIG. 8A). The 10k mouse Gem 2 gene set (Incyte Genomics Inc, Palo Alto, Calif.) was printed at the NCI on poly-L-lysine-coated glass using a Biorobotics TASII arrayer (Cambridge, England). All protocols for manufacturing and hybridization of microarrays are posted on the NCI web site (see, e.g., nciarray.nci.nih.gov). Approximately 20 μg of total RNA were used in the reverse transcription reaction to directly label the probe with Cy-5 dUTP or Cy-3 dUTP (Amersham). Hybridizations were performed at 65° C. for 12-18 h in a hybridization volume of 35 μL. The hybridized arrays were scanned using an Axon GenePix 4000 scanner (Union City, Calif.) and fluorescence data were collected using the GenePix software.
mRNA was prepared from a pool of 4 tumors obtained from two different experiments. In both cases, tumors were excised 2 weeks after subcutaneous injection of cells. Because the fluorescently labeled Cy dyes may incorporate into the reverse-transcribed cDNA with different efficiencies, RNA isolated from both cell types was always labeled with both combinations of Cy dyes. […] SW1 vector control cells were labeled with Cy-3 (F532) and the SW1-ATF 51-100 cells were labeled with Cy-5 (F635).

- Ratio ATFp2-Cy5 vs parental control-Cy3: Hadh (hydroxyacyl-Coenzyme A dehydrogenase) ([4]; IMAGE: 368571): 0.3738 and 0.3752 and 0.5471 and 0.6286
- Ratio ATFp2-Cy5 vs parental control-Cy3: Crabp1 (cellular retinoic acid binding protein I) ([4]; IMAGE: 406272): 0.3248 and 0.361 and 0.3150 and 0.3569
- Ratio ATFp2-Cy5 vs parental control-Cy3: Ptk2 (PTK2 protein tyrosine kinase 2) ([4]; IMAGE: 577544): 0.3803 and 0.3817 and 0.3913 and 0.4599
- Ratio ATFp2-Cy5 vs parental control-Cy3: Casp6 (caspase 6) ([4]; IMAGE: 636228): 0.3777 and 0.3791 and 0.4947 and 0.6368
- Ratio ATFp2-Cy5 vs parental control-Cy3: S100a9 (S100 calcium-binding protein A9 (calgranulin B)) ([4]; IMAGE: 720190): 0.3486 and 0.3498 and 0.362 and 0.3547
- Ratio ATFp2-Cy5 vs parental control-Cy3: Lgals7 (lectin galactose binding, soluble 7) ([4]; IMAGE: 1023899): 0.4381 and 0.4397 and 0.4481 and 0.4781
Substance: ATF2^51-100: amino-terminal peptide of ATF2, amino acid residue 51 to 100 (about a 50 amino acid peptide), expressed in tumor cells (MTLKFGPARNDSVIVADQTPTPTRFLKNCEEVGLFNELASPFENEFKKAS; UniProt P15336 51-100, looked up, fragment)
- tumor size [1]: 300 mm^3
- spontaneous (basal) apoptosis ([2]; absence of treatment): 12-55%
- UCN-01-induced apoptosis ([2]; treated with UCN-01): 20-77%
- activation of caspase 9 (cleavage fragments) [3]: activation of caspase 9 even prior to treatment with UCN-01
- Ratio ATFp2-Cy5 vs parental control-Cy3: Mt2 (metallothionein 2) ([4]; IMAGE: 334351): 0.3874 and 0.3888 and 0.4649 and 0.5780
- Ratio ATFp2-Cy5 vs parental control-Cy3: RIKEN cDNA 2900002K07 gene ([4]; IMAGE: 516935): 0.3227 and 0.3239 and 0.2740 and 0.3014
- Ratio ATFp2-Cy5 vs parental control-Cy3: Ifit1 (interferon-induced protein with tetratricopeptide repeats 1) ([4]; IMAGE: 616653): 0.2354 and 0.2363 and 0.2637 and 0.3054
- Ratio ATFp2-Cy5 vs parental control-Cy3: ESTs ([4]; IMAGE: 619632): 0.4707 and 0.4724 and 0.3928 and 0.6046
- Ratio ATFp2-Cy5 vs parental control-Cy3: Scya12 (small inducible cytokine A12) ([4]; IMAGE: 620800): 0.2911 and 0.2922 and 0.3318 and 0.4279
- Ratio ATFp2-Cy5 vs parental control-Cy3: ESTs ([4]; IMAGE: 621129): 0.4938 and 0.4955 and 0.3268 and 0.3091
- Ratio ATFp2-Cy5 vs parental control-Cy3: Igh-1 (immunoglobulin heavy chain 1 (serum IgG2a)) ([4]; IMAGE: 636695): 0.3565 and 0.3578 and 0.4847 and 0.6503
- Ratio ATFp2-Cy5 vs parental control-Cy3: Jsp18 (ubiquitin specific protease 18) ([4]; IMAGE: 751642): 0.3213 and 0.3225 and 0.2989 and 0.2958
- Ratio ATFp2-Cy5 vs parental control-Cy3: Plat (plasminogen activator, tissue) ([4]; IMAGE: 836124): 0.4074 and 0.4089 and 0.4019 and 0.5488
- Ratio ATFp2-Cy5 vs parental control-Cy3: G0s2 (G0/G1 switch gene 2) ([4]; IMAGE: 864447): 0.4421 and 0.4583 and 0.383 and 0.3949
- Ratio ATFp2-Cy5 vs parental control-Cy3: Xlr (X-linked lymphocyte-regulated complex) ([4]; IMAGE: 1022928): 0.1598 and 0.1572 and 0.1540 and 0.1537
- Ratio ATFp2-Cy5 vs parental control-Cy3: Mus musculus, clone MGC: 19199 IMAGE: 4236882, mRNA, complete cds ([4]; IMAGE: 1037652): 0.4768 and 0.4785 and 0.4402 and 0.4792
- Ratio ATFp2-Cy5 vs parental control-Cy3: Isg15 (interferon-stimulated protein (15 kDa)) ([4]; IMAGE: 1068714): 0.321 and 0.4337 and 0.4643 and 0.5141
- Ratio ATFp2-Cy5 vs parental control-Cy3: Ifit3 (interferon-induced protein with tetratricopeptide repeats 3) ([4]; IMAGE: 1210036): 0.4750 and 0.4768 and 0.3824 and 0.3361
- Ratio ATFp2-Cy5 vs parental control-Cy3: Ensa (endosulfine alpha) ([4]; IMAGE: 1278511): 0.4501 and 0.4517 and 0.4544 and 0.4479
